For the test, the target named is T1, human GnRH receptor (Homo sapiens, UniProt P30968).
T1 construct: expressed in transfected cells; host or cells: CHO (Chinese Hamster Ovary) cells, membrane fraction
T1 sequence (P30968 1-328): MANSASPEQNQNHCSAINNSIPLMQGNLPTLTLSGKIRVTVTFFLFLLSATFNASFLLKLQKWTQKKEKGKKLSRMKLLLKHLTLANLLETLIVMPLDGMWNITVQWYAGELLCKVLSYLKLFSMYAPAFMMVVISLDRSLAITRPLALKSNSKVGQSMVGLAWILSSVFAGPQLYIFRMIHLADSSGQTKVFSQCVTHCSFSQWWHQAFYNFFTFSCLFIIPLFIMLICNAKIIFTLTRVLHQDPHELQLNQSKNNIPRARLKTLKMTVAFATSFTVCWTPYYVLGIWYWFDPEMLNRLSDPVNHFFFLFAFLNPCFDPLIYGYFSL
Briefly: Determination of inhibitory rate of 125I-leuprorelin binding (membrane fraction of CHO cells expressing human GnRH receptors). Conditions: CHO cell membrane expressing human GnRH receptors, 25° C., 60 minutes, Hill plot. As to the method: (1)Preparation of ^125 I-leuprorelin:
Ten μl of 3×10^-4 M aqueous solution of leuprorelin and 10 μl of 0.01 mg/ml lactoperoxidase in 0.1M HEPES buffer (pH 7.4) were taken into a tube, to which was added 10 μl (37 MBq in 0.1 M HEPES buffer (pH7.4)) of an Na^125 I solution. The mixture was stirred, to which was added 10 μl of 0.001% H2O2, then reaction was allowed to proceed for 20 minutes at room temperature. To the reaction mixture was added 700 μl of a 0.05% TFA solution to cease the reaction. The product was purified by means of reversed phase HPLC. Conditions of HPLC are as follows. ^125 I-leuprorelin was eluted at a retention time of 26 to 27 minutes.
(2) Preparation of membrane fraction of CHO (Chinese Hamster Ovary) cells containing human GnRH receptors
CHO cells (10^9) expressing human GnRH receptors were suspended in a phosphate-buffered saline supplemented with 5 mM EDTA (ethylenediamine tetraacetate) (PBS-EDTA). […]
The reaction was allowed to proceed at 25° C. for 60 minutes. […] After completion of the filtration, radioactivity of the ^125 I-leuprorelin remaining on the filter paper was measured with a γ-counter.
By calculation of the following formula, the binding inhibitory rate (PMB, %) of each test compound was determined.
TB: Maximum binding radioactivity.
SB: Radioactivity obtained when a compound was added. […]

Among the data in patent US6001850A, “Thienopyridine derivatives, their production and use” (Takeda Chemical Industries, Ltd., priority 1996, dated 1999) are IC50 values, retold here.

As to `C=C(C)COc1ccc(-c2sc3c(c2CN(C)Cc2ccccc2)c(=O)c(C(=O)C(C)C)cn3Cc2c(F)cccc2F)cc1` [Example 3(4), 2-[4-(2-methyl-2-propen-1-yl-oxy)phenyl]-4,7-dihydro-7-(2,6-difluorobenzyl)-3-(N-benzyl-N-methylaminomethyl)-5-isobutyryl-4-oxothieno[2,3-b]pyridine], the IC50 (as a rule, the concentration at which inhibition is half-maximal) came out at 10 nM.
